Results from patent US11919965B2, “Methods of treating multiple myeloma with bispecific anti-BCMA x anti-CD3 antibodies” (Regeneron Pharmaceuticals, Inc., priority 2019, dated 2024).

Key:
monkey BCMA-MFC = experiment: SPR (Biacore 4000) binding kinetics at 25° C.
Procedure: (§1) The CM5 Biacore sensor surface was derivatized by amine coupling with a monoclonal mouse anti-human Fc antibody (GE, #BR-1008-39) to capture purified anti-BCMA mAbs and anti-BCMA×anti-CD3 bispecific mAbs. All Biacore binding studies were performed in a buffer composed of 0.01M HEPES pH 7.4, 0.15M NaCl, 3 mM EDTA, 0.05% v/v Surfactant P20 (HBS-ET running buffer). […] Antigen samples were then injected over the anti-BCMA and anti-BCMA×anti-CD3 bispecific mAbs captured surfaces at a flow rate of 30 μL/minute. Antibody-reagent association was monitored for 5 minutes while dissociation in HBS-ET running buffer was monitored for 10 minutes. All of the binding kinetics experiments were performed at 25° C. Kinetic association (ka) and dissociation (kd) rate constants were determined by fitting the real-time sensorgrams to a 1:1 binding model using Scrubber 2.0c curve fitting software. Binding dissociation equilibrium constants (KD) and dissociative half-lives (t1/2) were calculated from the kinetic rate constants as: […]

monkey BCMA-MMH = experiment: SPR (Biacore 4000) binding kinetics at 25° C.
Procedure: as §1

[1] = system: established BCMA-expressing NCI-H929 multiple myeloma tumors; experiment: Xenogenic tumor model, established NCI-H929 tumors + human PBMC in NSG mice, treatment from day 5 (Example 12); type: in vivo, mouse; conditions: for Average Tumor Size (mm3) ± SEM on Day 5: day of first dose
Procedure: To determine the in vivo efficacy of anti-BCMA×anti-CD3 bispecific antibodies (Abs), a xenogenic tumor study was performed. Immunodeficient NOD.Cg-Prkdc^scidII2rg^tm1Wjl/SzJ (NSG) mice were subcutaneously implanted with a mixture of 10×10^6 BCMA-expressing NCI-H929 human multiple myeloma tumor cells and 0.5×10^6 human peripheral blood mononuclear cells (PBMC) isolated from a normal, healthy donor. The tumors were allowed to grow and establish for 5 days until they were approximately 70 mm^3 in size. […] The mice were administered these Abs twice per week for a total of seven doses, and tumor growth was assessed over 55 days.
Implantation and measurement of xenogenic tumors: NSG mice were subcutaneously implanted with a mixture of 10×10^6 BCMA-expressing NCI-H929 multiple myeloma cells and 0.5×10^6 PBMC derived from a normal, healthy donor. The tumors were allowed to grow and establish for 5 days until they were approximately 70 mm^3 in size. […] The mice were administered Abs twice per week for a total of seven doses. Tumor growth was measured with calipers twice per week for the duration of the experiment.
(§2) Calculation of xenogenic tumor growth and inhibition: In order to determine tumor volume by external caliper, the greatest longitudinal diameter (length in mm) and the greatest transverse diameter (width in mm) were determined. Tumor volumes based on caliper measurements were calculated by the formula: Volume (mm^3)=(length× width^2)/2.

[2] = system: BCMA-expressing MOLP-8 multiple myeloma tumors; experiment: Xenogenic tumor model, MOLP-8 + human PBMC s.c. in NSG mice, dose response (Example 13); type: in vivo, mouse
Procedure: To determine the in vivo efficacy of anti-BCMA×anti-CD3 bispecific antibodies (Abs), a xenogenic tumor study was performed. Immunodeficient NOD.Cg-Prkdc^scidII2rg^tm1Wjl/SzJ (NSG) mice were subcutaneously implanted with a mixture of 5×10^6 BCMA-expressing MOLP-8 human multiple myeloma tumor cells and 1×10^6 human peripheral blood mononuclear cells (PBMC) isolated from a normal, healthy donor. […] The mice were administered these Abs twice per week for a total of seven doses, and tumor growth was assessed over 56 days. While the BCMA+ MOLP-8 tumors grew similarly in the vehicle- and CD3-binding control-treated mice, both BCMA×CD3 Abs that were tested prevented the growth of tumors in a dose-dependent manner in vivo.
Implantation and measurement of xenogenic tumors: NSG mice were subcutaneously implanted with a mixture of 5×10^6 BCMA-expressing MOLP-8 multiple myeloma cells and 1×10^6 PBMC derived from a normal, healthy donor. […] The mice were administered Abs twice per week for a total of seven doses. Tumor growth was measured by caliper twice per week for the duration of the experiment.
as §2

monkey BCMA-MMH, sequence (as listed by the source): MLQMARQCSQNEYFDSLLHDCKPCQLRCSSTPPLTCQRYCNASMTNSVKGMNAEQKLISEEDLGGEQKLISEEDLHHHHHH
monkey BCMA-MFC, sequence (as listed by the source): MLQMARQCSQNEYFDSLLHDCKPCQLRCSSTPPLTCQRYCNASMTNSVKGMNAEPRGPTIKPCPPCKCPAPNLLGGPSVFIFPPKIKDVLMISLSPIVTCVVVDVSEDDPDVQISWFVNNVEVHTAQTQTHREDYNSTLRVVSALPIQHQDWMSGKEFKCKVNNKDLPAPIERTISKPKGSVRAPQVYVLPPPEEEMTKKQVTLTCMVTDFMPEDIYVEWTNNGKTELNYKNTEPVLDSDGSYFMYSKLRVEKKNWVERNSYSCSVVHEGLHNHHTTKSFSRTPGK

Q: For “REGN5458: anti-BCMA×anti-CD3 bispecific antibody: mAb21581 BCMA heavy chain, mAb7221G CD3 heavy chain and common light chain; SEQ ID NOs 126, 127, 129”, which “ka” value (monkey BCMA-MFC) is on record?
A: 528000 M⁻¹ s⁻¹

Q: And the “kd” value (monkey BCMA-MFC)?
A: 8.8e-05 s⁻¹

Q: What about the “ka” value (monkey BCMA-MMH) of the same substance?
A: 182000 M⁻¹ s⁻¹

Q: What about the “kd” value (monkey BCMA-MMH) of the same substance?
A: 0.00909 s⁻¹

Q: What about the “Average Tumor Size (mm3) ± SEM on Day 8” value ([1]; 0.04 mg/kg) of the same substance?
A: 130.3 ± 16.7 mm3

Q: And the “Average Tumor Size (mm3) ± SEM on Day 15” value ([1]; 0.04 mg/kg)?
A: 1031.2 ± 164.3 mm3

Q: What about the “Average Tumor Size (mm3) ± SEM on Day 19” value ([1]; 0.04 mg/kg) of the same substance?
A: 2467.5 ± 370.0 mm3

Q: What about the “Average Tumor Size (mm3) ± SEM on Day 22” value ([1]; 0.04 mg/kg) of the same substance?
A: 3745.7 ± 541.2 mm3

Q: And the “Average Tumor Size (mm3) ± SEM on Day 27” value ([1]; 0.04 mg/kg)?
A: 1589.1 ± 0 mm3

Q: What about the “Average Tumor Size (mm3) ± SEM on Day 30” value ([1]; 0.04 mg/kg) of the same substance?
A: 2886.5 ± 0 mm3

Q: What about the “Average Tumor Size (mm3) ± SEM on Day 5” value ([1]; 0.04 mg/kg) of the same substance?
A: 58.1 ± 5.6 mm3

Q: What about the “Average Tumor Size (mm3) ± SEM on Day 8” value ([1]; 0.4 mg/kg) of the same substance?
A: 120.3 ± 16.3 mm3

Q: And the “Average Tumor Size (mm3) ± SEM on Day 12” value ([1]; 0.4 mg/kg)?
A: 262.7 ± 61.6 mm3

Q: And the “Average Tumor Size (mm3) ± SEM on Day 15” value ([1]; 0.4 mg/kg)?
A: 476.2 ± 133.5 mm3

Q: And the “Average Tumor Size (mm3) ± SEM on Day 19” value ([1]; 0.4 mg/kg)?
A: 1347.5 ± 334.7 mm3

Q: What about the “Average Tumor Size (mm3) ± SEM on Day 22” value ([1]; 0.4 mg/kg) of the same substance?
A: 2068.5 ± 465.0 mm3

Q: What about the “Average Tumor Size (mm3) ± SEM on Day 27” value ([1]; 0.4 mg/kg) of the same substance?
A: 3463.9 ± 1025.0 mm3

Q: What about the “Average Tumor Size (mm3) ± SEM on Day 30” value ([1]; 0.4 mg/kg) of the same substance?
A: 2144.2 ± 2144.2 mm3

Q: What about the “Average Tumor Size (mm3) ± SEM on Day 35” value ([1]; 0.4 mg/kg) of the same substance?
A: 0 ± 0 mm3

Q: And the “Average Tumor Size (mm3) ± SEM on Day 40” value ([1]; 0.4 mg/kg)?
A: 0 ± 0 mm3

Q: And the “Average Tumor Size (mm3) ± SEM on Day 55” value ([1]; 0.4 mg/kg)?
A: 0 ± 0 mm3

Q: What about the “Average Tumor Size (mm3) ± SEM on Day 5” value ([1]; 0.4 mg/kg) of the same substance?
A: 69.3 ± 7.3 mm3

Q: And the “Average Tumor Size (mm3) ± SEM on Day 8” value ([1]; 4 mg/kg)?
A: 64.7 ± 16.4 mm3

Q: What about the “Average Tumor Size (mm3) ± SEM on Day 12” value ([1]; 4 mg/kg) of the same substance?
A: 19.5 ± 10.9 mm3

Q: What about the “Average Tumor Size (mm3) ± SEM on Day 15” value ([1]; 4 mg/kg) of the same substance?
A: 25.6 ± 19.2 mm3

Q: What about the “Average Tumor Size (mm3) ± SEM on Day 19” value ([1]; 4 mg/kg) of the same substance?
A: 40.6 ± 32.8 mm3

Q: And the “Average Tumor Size (mm3) ± SEM on Day 22” value ([1]; 4 mg/kg)?
A: 78.3 ± 60.8 mm3

Q: What about the “Average Tumor Size (mm3) ± SEM on Day 30” value ([1]; 4 mg/kg) of the same substance?
A: 411.3 ± 307.2 mm3

Q: What about the “Average Tumor Size (mm3) ± SEM on Day 35” value ([1]; 4 mg/kg) of the same substance?
A: 633.5 ± 473.5 mm3

Q: And the “Average Tumor Size (mm3) ± SEM on Day 40” value ([1]; 4 mg/kg)?
A: 369.5 ± 369.5 mm3

Q: And the “Average Tumor Size (mm3) ± SEM on Day 55” value ([1]; 4 mg/kg)?
A: 0 ± 0 mm3

Q: What about the “Average Tumor Size (mm3) ± SEM on Day 5” value ([1]; 4 mg/kg) of the same substance?
A: 71.9 ± 10.3 mm3

Q: What about the “Average Tumor Size (mm3) ± SEM on Day 3” value ([2]; 0.04 mg/kg) of the same substance?
A: 9.3 ± 2.4 mm3

Q: What about the “Average Tumor Size (mm3) ± SEM on Day 7” value ([2]; 0.04 mg/kg) of the same substance?
A: 18.3 ± 5.0 mm3

Q: What about the “Average Tumor Size (mm3) ± SEM on Day 10” value ([2]; 0.04 mg/kg) of the same substance?
A: 73.9 ± 25.7 mm3

Q: And the “Average Tumor Size (mm3) ± SEM on Day 14” value ([2]; 0.04 mg/kg)?
A: 255.4 ± 79.7 mm3

Q: What about the “Average Tumor Size (mm3) ± SEM on Day 17” value ([2]; 0.04 mg/kg) of the same substance?
A: 494.3 ± 144.3 mm3

Q: What about the “Average Tumor Size (mm3) ± SEM on Day 21” value ([2]; 0.04 mg/kg) of the same substance?
A: 1373.0 ± 366.6 mm3

Q: What about the “Average Tumor Size (mm3) ± SEM on Day 23” value ([2]; 0.04 mg/kg) of the same substance?
A: 1882.3 ± 551.5 mm3

Q: What about the “Average Tumor Size (mm3) ± SEM on Day 28” value ([2]; 0.04 mg/kg) of the same substance?
A: 2542.5 ± 613.3 mm3

Q: What about the “Average Tumor Size (mm3) ± SEM on Day 31” value ([2]; 0.04 mg/kg) of the same substance?
A: 2906.1 ± 532.6 mm3

Q: What about the “Average Tumor Size (mm3) ± SEM on Day 35” value ([2]; 0.04 mg/kg) of the same substance?
A: 3538.0 ± 0.0 mm3

Q: What about the “Average Tumor Size (mm3) ± SEM on Day 3” value ([2]; 0.4 mg/kg) of the same substance?
A: 13.5 ± 1.5 mm3

Q: What about the “Average Tumor Size (mm3) ± SEM on Day 7” value ([2]; 0.4 mg/kg) of the same substance?
A: 1.0 ± 1.0 mm3

Q: And the “Average Tumor Size (mm3) ± SEM on Day 10” value ([2]; 0.4 mg/kg)?
A: 0 ± 0 mm3

Q: And the “Average Tumor Size (mm3) ± SEM on Day 14” value ([2]; 0.4 mg/kg)?
A: 0 ± 0 mm3

Q: What about the “Average Tumor Size (mm3) ± SEM on Day 17” value ([2]; 0.4 mg/kg) of the same substance?
A: 1.7 ± 1.7 mm3

Q: What about the “Average Tumor Size (mm3) ± SEM on Day 21” value ([2]; 0.4 mg/kg) of the same substance?
A: 5.3 ± 5.3 mm3

Q: And the “Average Tumor Size (mm3) ± SEM on Day 23” value ([2]; 0.4 mg/kg)?
A: 9.7 ± 9.7 mm3

Q: And the “Average Tumor Size (mm3) ± SEM on Day 28” value ([2]; 0.4 mg/kg)?
A: 47.4 ± 47.4 mm3

Q: And the “Average Tumor Size (mm3) ± SEM on Day 31” value ([2]; 0.4 mg/kg)?
A: 104.7 ± 92.6 mm3

Q: What about the “Average Tumor Size (mm3) ± SEM on Day 35” value ([2]; 0.4 mg/kg) of the same substance?
A: 375.1 ± 307.5 mm3

Q: And the “Average Tumor Size (mm3) ± SEM on Day 42” value ([2]; 0.4 mg/kg)?
A: 968.8 ± 689.2 mm3

Q: What about the “Average Tumor Size (mm3) ± SEM on Day 56” value ([2]; 0.4 mg/kg) of the same substance?
A: 1742.4 ± 635.2 mm3

Q: What about the “Average Tumor Size (mm3) ± SEM on Day 3” value ([2]; 4 mg/kg) of the same substance?
A: 12.5 ± 1.3 mm3

Q: And the “Average Tumor Size (mm3) ± SEM on Day 7” value ([2]; 4 mg/kg)?
A: 0 ± 0 mm3

Q: And the “Average Tumor Size (mm3) ± SEM on Day 10” value ([2]; 4 mg/kg)?
A: 0 ± 0 mm3

Q: What about the “Average Tumor Size (mm3) ± SEM on Day 14” value ([2]; 4 mg/kg) of the same substance?
A: 0 ± 0 mm3

Q: And the “Average Tumor Size (mm3) ± SEM on Day 17” value ([2]; 4 mg/kg)?
A: 14.5 ± 7.3 mm3

Q: And the “Average Tumor Size (mm3) ± SEM on Day 21” value ([2]; 4 mg/kg)?
A: 102.7 ± 66.2 mm3

Q: And the “Average Tumor Size (mm3) ± SEM on Day 23” value ([2]; 4 mg/kg)?
A: 193.3 ± 117.7 mm3

Q: What about the “Average Tumor Size (mm3) ± SEM on Day 28” value ([2]; 4 mg/kg) of the same substance?
A: 627.4 ± 318.1 mm3

Q: What about the “Average Tumor Size (mm3) ± SEM on Day 31” value ([2]; 4 mg/kg) of the same substance?
A: 1018.5 ± 498.3 mm3

Q: And the “Average Tumor Size (mm3) ± SEM on Day 35” value ([2]; 4 mg/kg)?
A: 1342.9 ± 629.6 mm3

Q: And the “Average Tumor Size (mm3) ± SEM on Day 42” value ([2]; 4 mg/kg)?
A: 2363.0 ± 890.2 mm3

Q: And the “Average Tumor Size (mm3) ± SEM on Day 49” value ([2]; 4 mg/kg)?
A: 1683.5 ± 1683.5 mm3

Q: What about the “Average Tumor Size (mm3) ± SEM on Day 56” value ([2]; 4 mg/kg) of the same substance?
A: 3108.1 ± 3108.1 mm3
